According to patent US20090301508A1, “Cosmetic Composition and Preparation Method and Use Thereof” (priority 2006, published 2009):
Where a name gives a salt, the structure may show the parent alone.

Key:
spermatozoa = assay: Teratospermia Test; assay type: in vivo, mice; settings: positive control 40 mg/kg
Method: 3.2 Preparation of sample: Sample 5000, 2500 or 1250 mg was weighted and grinded. Distilled water was added into the grinded sample to 20 ml, and the mixture was blended sufficiently to obtain a test sample.
3.3 Animal subject: Male mice, depuratory grade, 25-30 g, provided by experimental animal department, Fudan University. Certificate No.: 02-22-1.
3.5.1 Animals were divided randomly into 5 groups, 5 in each group. It the five groups, there were three groups for three doses of test sample, one negative control group, distilled water, and one positive control group, cyclophosphaide.
3.5.2. Animals were weighted and administrated with the test sample or control substances in different concentrations in a volume of 0.4 ml/20 g via an intragastric catheter, once a day for 5 days.
3.5.3 Animals were sacrificed via cervical bertebra dislocation 35 days after the first intragastric administration. The ambo-epididymises were taken off and put into normal saline. After being cut into pieces, they were filtered through a four layer gauze. The filter was smeared, fixed and dyed with 2% eosin.
3.5.4 Test under microscope: Amounts of teratosperm in 1000 spernatozoas were counted per mouse and rates of teratospermia were calculated statistically.

[1] = tested on: philo-pleochromatic akaryocytes in animal marrow; assay: Micronucleus Test; assay type: in vivo, mice; settings: positive control 40 mg/kg; for Micronucleated Cells No.: 5000 cells tested
Method: 2.2 Preparation of sample: Sample 5000, 2500 or 1250 mg was weighted and grinded. Distilled water was added into the grinded sample to 20 ml, and the mixture was blended sufficiently to form a test sample.
2.3 Animal subject: Kunming species of mice, 25-30 g, provided by experimental animal department, Fudan University. Certificate No.: 02-22-1.
2.5.1 Animals were divided randomly into 5 groups, 10 in each group with half of female and half of male. In the five groups, there were three groups for three doses of test sample, one negative control group, distilled water, and one positive control group, cyclophosphaide.
2.5.2. Animals were weighted and administrated with the test sample or control substances in different concentrations in a volume of 0.4 ml/20 g via an intragastric catheter, and the administration is repeated once more in 30 hr.
2.5.3 Animals were sacrificed via cervical bertebra dislocation 6 hr. after the second intragastric administration. The marrow was taken out of the femoral bone and blended uniformly with calf serum. Then, the film preparation, the fixation, and Giemasa stain were undertaken conventionally.
2.5.4 Test under microscope: Numbers of micronuclei were counted in over one thousand of philo-pleochromatic akaryocytes. Incidence rates of micronuclei were calculated and analyzed statistically.

M cells = assay: tissue culture experiments, growth of M cells / collagen fiber network; assay type: cell-based; settings: vs control group (P>0.05)
Source text: The difference in comparison with the control group is statistically significant ([…]).

TA102 = assay: AmesTest, strain TA102
Method: (§1) 4.3 Sample processing and preparation: 4000 mg sample was weighted and distilled water was added into the sample to 20 ml, then the mixture was blended to obtain a 200 mg/ml of solution. 3, 1, 0.3 and 0.1 mL of this solution were taken, respectively and each was added with sterile distilled water to 10 ml to obtain a solution in the concentration of 60 mg/ml, 20 mg/ml, 6 mg/ml and 2 mg/ml, respectively.
(§2) 4.4 Test doses: 0.2 mg/dish, 0.6 mg/dish, 2 mg/dish, 6 mg/dish and 20 mg/dish
(§3) 4.7 Test strains: TA97, TA98, TA100 and TA102, with qualitied biological characters, provided by Biochemistry Dept., California University, CA, America. The concentration of the bacteria liquid used for the test was 1-2×10^9/ml.
A healthy adult SD rat with a body weight of about 150 g was selected. Polychlorinatedbiphenyl was dissolved into corn oil to obtain a solution of 200 mg/ml. The above solution was injected (i.p.), in a sterile operation, into the rat in a dose of 500 mg/kg. 5 days later, the animal was sacrificed via decapitation. The liver was taken out and weighted, then rinsed several times with 0.15 mol/L of fresh cooled solution of potassium chloride. The amount of the potassium chloride solution was 3 ml/g liver (wet weight). The beaker in which the rinsed liver put was removed into an ice bath, and the liver was cut into pieces with a pair of sterilized scissors. The liver was homogenized with a tissue homogenizer (2000 r/min, 1 min), then the liver homogenate thus prepared was centrifuged in a high speed centrifuge (0-4° C., 9000 g, 10 min). The supernatant, S9 part, was packed into several sterile tubes and conserved in liquid nitrogen. The above steps need to be operated in a sterile and cooled local circumstance. The S9 thus prepared was further identified for its content of protein and bioactivity of indirect mutagen.
Standard plate incorporation on the basis of GB15193-94: Into the top agar (45° C., 2 ml), the bacterial liquid 0.1 ml, Sample 0.1 ml and S9 mixture 0.5 ml for activation were added sequently. The mixture was blended sufficiently and poured rapidly onto the underlayer medium. After the incubation of 48 hr. at 37° C., results were observed. each test was repeated once more.

TA100 = assay: AmesTest, strain TA100
Method: as §1, §2, §3
A healthy adult SD rat with a body weight of about 150 g was selected. Polychlorinatedbiphenyl was dissolved into corn oil to obtain a solution of 200 mg/ml. The above solution was injected (i.p.), in a sterile operation, into the rat in a dose of 500 mg/kg. 5 days later, the animal was sacrificed via decapitation. The liver was taken out and weighted, then rinsed several times with 0.15 mol/L of fresh cooled solution of potassium chloride. The amount of the potassium chloride solution was 3 ml/g liver (wet weight). The beaker in which the rinsed liver put was removed into an ice bath, and the liver was cut into pieces with a pair of sterilized scissors. […]

[2] = Salmonella typhimurium, 48 h, 1 μl/dish

For `O=P1(N(CCCl)CCCl)NCCCO1` (stereo not shown) [Cyclophosphaide], the “Aberration rate (‰)” value (spermatozoa) was 58.4 ‰, the “Type of aberration (n): Banana sharp” value (spermatozoa; 5000 spernatozoa tested) was 32 and the “Type of aberration (n): Double head” value (spermatozoa; 5000 spernatozoa tested) was 4. For the same molecule, the “Type of aberration (n): Double tail” value (spermatozoa; 5000 spernatozoa tested) was 6, the “Type of aberration (n): Fat head” value (spermatozoa; 5000 spernatozoa tested) was 45 and the “Type of aberration (n): Fold tail” value (spermatozoa; 5000 spernatozoa tested) was 2. The “Type of aberration (n): No crook” value (spermatozoa; 5000 spernatozoa tested) was 28, the “Type of aberration (n): amorphism” value (spermatozoa; 5000 spernatozoa tested) was 175 and the “Rate of Micronuclei (‰)” value ([1]; F) was 25.8 ‰. For the same molecule, the “Micronucleated Cells No.” value ([1]; F) was 129, the “Rate of Micronuclei (‰)” value ([1]; M) was 26.4 ‰ and the “Micronucleated Cells No.” value ([1]; M) was 132.

In the case of `C[C@@H]1O[C@@H](O[C@@H]2[C@@H](O)[C@H](OCCc3ccc(O)c(O)c3)O[C@H](CO)[C@H]2OC(=O)/C=C/c2ccc(O)c(O)c2)[C@H](O)[C@H](O)[C@H]1O` [acteoside, Acteoside], the “promotion on the growth of M cells” value (M cells) is reported as “obvious promotion”.

`O=C1c2cccc(O)c2C(=O)c2c(O)cccc21` [1,8-dioxy anthraquinone] was tested, and the Re-established colonies (TA102; first test, TA102 +S9, positive control 50 μl/dish) was 885 ± 56 colonies/sish and the Re-established colonies (TA102; second test, TA102 +S9, positive control 50 μl/dish) was 975 ± 86 colonies/sish.

With `COS(C)(=O)=O` [Methyl mesylate] the Re-established colonies (TA102; [2]) was 2520 ± 112 colonies/sish, the Re-established colonies (TA102; first test, TA102 −S9, positive control 1 μl/dish) was 2784 ± 289 colonies/sish and the Re-established colonies (TA100; [2]) was 1641 ± 80 colonies/sish. For the same molecule, the Re-established colonies (TA100; first test, TA100 −S9, positive control 1 μl/dish) was 1463 ± 84 colonies/sish.
